Measured values published in US11827724B2, “Polytetrafluoroethylene and method for producing same” (DAIKIN INDUSTRIES, LTD., priority 2009, dated 2023).
Like-named read-outs stand apart in the source and are kept apart here.

What was measured:
[1] = PFOA, stated in description as comparison; cited from earlier work
[2] = Log POW, distribution coefficient between 1-octanol and water; settings: fluorinated surfactants used in Examples; octanol/water (1:1)
Description: The Log POW is distribution coefficient between 1-octanol and water. The Log POW is represented by Log P, wherein P is the ratio of a concentration of a fluorinated surfactant in an octanol phase to a concentration of a fluorinated surfactant in a water phase when an octanol/water (1:1) mixture containing a fluorinated surfactant is phase-separated.

Compound: N.O=C(O)C(F)(F)C(F)(F)C(F)(F)C(F)(F)C(F)(F)C(F)(F)C(F)(F)F [PFOA, perfluoro octanoic acid ammonium]
- Log POW [1]: 3.5

Compound: N.O=C(O)C(F)(OC(F)(F)C(F)(OC(F)(F)F)C(F)(F)F)C(F)(F)F (centres unmarked) [CF3—O—CF(CF3)CF2O—CF(CF3) COONH4]
- Log POW [2]: 3.4
